Data taken from paper PMC9053816, “A polypeptide model for toxic aberrant proteins induced by aminoglycoside antibiotics” (PLoS ONE, 2022).
“Also recorded” adds a separate entry of the source. Like-named read-outs stand apart in the source and are kept apart here.

Assays:
E. coli BL21 cells = assay: Hoechst 33342 uptake by fluorescence microscopy; type: cell-based, Escherichia coli
Protocol: (§1) Culture samples (0.3 ml) collected at the indicated times were centrifuged and the cell pellets were resuspended in 20–100 μl of Tris-buffered saline pH 8 (TBS) and held on ice. Cell suspensions were then stained with 1 μl of Hoechst 33342 (10 mg/ml stock solution was first diluted 1:100 in TBS). After incubation for 10 min on ice, 2 μl samples of cell suspension were mounted on coverslides using agarose blocks as described. Cells were then examined by epi-fluorescence microscopy, using a Zeiss Axiophot and a 63X oil immersion lens. Exposure times for 2-channel images (both transmitted and reflected light) were set automatically using on-board Zen 2011 software. In some experiments as noted, exposure times for reflected light images were fixed at 1 s, for comparison of relative fluorescence intensity. Brightfield images of E. coli cell aggregates were taken with a Nikon Eclipse T2 inverted microscope using a 20X lens and laser-based LED white light source, located at the Brookhaven National Laboratory Center for Functional Nanomaterials.

E. coli BL21 [1] = assay: Cell viability (colony counts / spot dilution on LB agar); type: cell-based, Escherichia coli
Protocol: (§2) All growth studies were performed in Luria-Bertani (LB) broth containing Penicillin G (150 μg/ml), using E. coli BL21 as the host strain except where noted. Frozen stocks of cell strains were first grown overnight at 30°C, without shaking, in 2 ml of LB containing PenG. The starter cultures were then diluted 1:100 in 3.5 ml of LB containing PenG, in plastic 15x90 mm tubes with loose-fitting caps, and the tubes were then tilted about 15–20 degrees from vertical and incubated at 37°C with shaking (300 rpm). Cell growth for all experiments except those shown in Fig 1 was monitored at the indicated times by measuring the optical density of culture samples (diluted 1:10 in saline) at 600 nm, using a Perkin Elmer Lambda 14 UV/VIS spectrophotometer and semi-micro glass cuvettes (1 ml sample volume). For the experiments shown in Fig 1, OD600 measurements were performed on 200 μl of undiluted culture using a 96-well plate reader. […] To measure cell viability, culture samples were serially diluted in LB broth, mixed with molten top agar and plated on LB agar containing PenG. The number of colonies was then counted after overnight incubation of plates at 37°C.
Supplementary file pone.0258794.s001.tif: S1 Fig Bactericidal effect of Kanamycin. Samples of an E. coli BL21 culture growing in LB broth were treated at early log phase (T = 0) with Cm (30 μg/ml) or Kan (50 μg/ml). After further incubation at 37°C for 30 or 60 min, samples of the untreated (UT) and antibiotic-treated cultures were diluted (serial 1:10), and 3 μl of each dilution was spotted onto an LB agar plate. The plate was then photographed after incubation overnight at 37°C. (TIF) Click here for additional data file.

E. coli BL21 nucleoids [2] = assay: Nucleoid conformation by fluorescence microscopy; type: cell-based, Escherichia coli; conditions: for Nucleoid conformation: H33342 staining, BL21 (Fig 6, S6 Fig)
Protocol: as §1
A culture sample also was left untreated (UT) for comparison. Cell samples were then collected after further incubation for 20, 40 or 60 min, washed with PBS, stained with H33342, and mounted on glass slides under agarose pads for fluorescence microscopy using a 40X oil immersion lens. The exposure time for each image was automatically set by microscope software. Scale bar = 20 μm. (TIF) Click here for additional data file.

E. coli BL21 [3] = assay: Growth analysis (culture OD600); type: cell-based, Escherichia coli
Protocol: as §2

E. coli BL21 nucleoids [4] = test system: E. coli BL21 nucleoids; parameters: method as in PMID 25250841; conditions: transcription inhibited; cited from earlier work
E. coli DnaK = conditions: by comparison with NR and σ32 peptides; cited from earlier work

Protocol for σ32 transcription factor: E, Western blot analysis of σ32 levels in cells following exposure to the indicated antibiotics for 20, 60, or 120 min as indicated. Cell extract from a non-induced culture was loaded in lane 1.
Equal volumes of cell cultures were centrifuged, and cell pellets were resuspended directly in 2X Laemmli sample buffer at a concentration of 5 OD600 units per ml based on culture OD600 at the time of sampling. To reduce viscosity, samples were sonicated using a cuphorn sonicator or passed through a 27-gauge needle prior to loading on SDS-polyacrylamide gels. Proteins were visualized either by staining gels directly with Coomassie Blue or after semi-dry electroblotting to immobilon membranes for Western blot analysis. Anti-σ32 monoclonal antibodies were purchased from BioLegend, San Diego, CA. Rabbit anti-DnaK and DnaJ serum was kindly provided by B. Bukau. Anti-GroEL antibodies were purchased from Sigma-Aldrich.
An aliquot of culture also was left untreated (NI) for comparison. Cultures were then incubated at 37°C with shaking, and cell growth was monitored by measuring culture optical density at 600 nm (OD600) using a microplate reader. B, samples of each culture were collected at 20, 60 and 90 min after treatment, and cells were lysed in 2X SDS-PAGE sample buffer at a concentration of 1.2 OD600 units per ml. Equal volumes of each sample were then analyzed by Western blotting, using antibodies against σ32 and σ70. Only the 20 min and 60 min samples of the Spectinomycin-treated culture were analyzed.

## O=C(N[C@H](CO)[C@H](O)c1ccc([N+](=O)[O-])cc1)C(Cl)Cl [Cm, chloramphenicol]
E. coli BL21 cells; 10 min after ARF48 induction or 60 min after Cm 30 or 200 μg/ml, non-induced culture 1.7 s
  Exposure time set automatically by camera software (H33342 fluorescence): 0.22 s
E. coli BL21 cells; Cm 30 or 200 μg/ml (Fig 6)
  Uptake of H33342 following exposure: enhanced
E. coli BL21 [1]; 30 μg/ml, samples at 0, 1, 2 and 5 h (Fig 2E)
  Cell viability following growth arrest: remained viable for several hours
E. coli BL21 [1]; Cm 30 μg/ml, 30 or 60 min (S1 Fig)
  Cell viability during exposure: fully retained
E. coli BL21 [1]; higher concentration than 30 μg/ml (200 μg/ml, Fig 2E)
  Cell viability at higher concentration: increasingly toxic
E. coli BL21 nucleoids [2]
  Nucleoid conformation: radially condensed
E. coli BL21 nucleoids [2]; after induction of expression or after exposure
  Time until nucleoids radially condensed: 30 to 45 min

## NC[C@H]1O[C@H](O[C@H]2[C@H](O)[C@@H](O[C@H]3O[C@H](CO)[C@@H](O)[C@H](N)[C@H]3O)[C@H](N)C[C@@H]2N)[C@H](O)[C@@H](O)[C@@H]1O [Kan, kanamycin]
E. coli BL21 [1]; first hour of exposure, Kan 50 μg/ml (S1 Fig)
  Decrease of cell viability: 5–6 orders of magnitude
E. coli BL21 [3]; low dose 3 μg/ml
  Cell division: slowed but did not completely halt cell division
σ32 transcription factor; 20, 60 or 120 min of exposure (Fig 1E)
  σ32 concentration over time: remained elevated
σ32 transcription factor; 60 min after exposure, range of doses (Fig 1D)
  σ32 level in cells: accumulated to high relative concentration
E. coli BL21 nucleoids [2]
  Nucleoid conformation: only transient

## Cc1c2c(c(O)c3c(O)cccc13)C(=O)[C@]1(O)C(=O)C(C(N)=O)=C(O)[C@@H](N(C)C)[C@@H]1C2 [aTc, anhydrotetracycline]
E. coli BL21 [3]; 0.2 μg/ml in culture medium
  Cell growth: not inhibited; also recorded: does not inhibit growth

## CO[C@H]1/C=C/O[C@@]2(C)Oc3c(C)c(O)c4c(O)c(c(/C=N/N5CCN(C)CC5)c(O)c4c3C2=O)NC(=O)/C(C)=C\C=C\[C@H](C)[C@H](O)[C@@H](C)[C@@H](O)[C@@H](C)[C@H](OC(C)=O)[C@@H]1C [rifampicin]
E. coli BL21 nucleoids [4]
  Nucleoid conformation: transient condensation

## CN[C@@H]1[C@H](O)[C@H](NC)[C@H]2O[C@@]3(O)C(=O)C[C@@H](C)O[C@H]3O[C@@H]2[C@H]1O [spectinomycin]
σ32 transcription factor; non-resistant cells, 20 μg/ml, 20 and 60 min (S2 Fig)
  σ32 levels following exposure: unchanged

## Kemptide
E. coli DnaK
  Recognition by DnaK (earlier studies): poorly recognized
